The values below come from PMC6792352, “Limited Chemical Structural Diversity Found to Modulate Thyroid Hormone Receptor in the Tox21 Chemical Library” (Environmental Health Perspectives, 2019).

A short description of the data set: in vitro. The settings on record: rat, gh3-tre-luc cells.

Counter-ions that a name gives are not always drawn.

`Nc1cc(Cl)c([N+](=O)[O-])cc1O` [2-Amino-4-chloro-5-nitrophenol] had a CC50 at 24 h (AC50 (uM) modified / 1000) of 36.9 µM.
Same read-out and setting: the figure for `CNC[C@H](O)c1cccc(O)c1` [Phenylephrine hydrochloride] is greater than 90 µM; for `Cc1nc2ccccc2n1Cc1ccc(Cl)cc1` [Chlormidazole] it is greater than 50 µM; for `N[C@@H]1CCCC[C@H]1N` [1,2-Cyclohexanediamine] it is greater than 90 µM.
For the setting “AC50 (uM) modified / 1000”, `CCCCCC[n+]1ccccc1` [1-Hexylpyridinium bromide] yielded a 50% cytotoxic concentration (CC50) at 24 h greater than 90 µM.
On the same count and under the same terms, the figure for `CC1=Nc2ccc3ccccc3c2C1(C)C` [1,1,2-Trimethyl-1H-benzo[e]indole] is greater than 90 µM.
On the same count and under the same terms, the figure for `O=C(N[C@H]1CN2CCC1CC2)c1ccc2c(c1)OCCO2` [PHA-00568487] is greater than 90 µM.
Where the note is “AC50 (uM) modified / 1000”, `CC(C)[C@H]1CC[C@@H](C)CC1=O` (stereo in doubt) [(2R,5R)-5-Methyl-2-(propan-2-yl)cyclohexanone] had a CC50 at 24 h greater than 90 µM.
As for `CCN(CCCCOC(=O)c1ccc(OC)c(OC)c1)C(C)Cc1ccc(OC)cc1` (stereo not drawn) [Mebeverine hydrochloride], the 50% cytotoxic concentration (CC50) at 24 h (AC50 (uM) modified / 1000) is greater than 20 µM.
The same measure, in the same setting: with `Clc1cc(Cl)nc(Cl)n1` [2,4,6-Trichloropyrimidine] the figure was greater than 90 µM.
Turning to `O=C1C(Cl)=C(Cl)C(=O)c2ccccc21` [Dichlone], the midpoint of cytotoxicity (AC50 (uM) modified / 1000, Tox21_110001=Tox21_201652, viability, 1 nM T3 present, 24 h), the CC50 at 24 h, lay at 31.4 µM and the half-maximal cytotoxic concentration (CC50) at 24 h (AC50 (uM) modified / 1000, Tox21_110001=Tox21_303031, viability, 1 nM T3 present, 24 h) turned out to be 7.73 µM.
For `CC1CCC(C(C)C)C(OC(=O)c2ccccc2N)C1` (stereo not drawn) [Menthyl anthranilate], the half-maximal cytotoxic concentration (CC50) at 24 h by setting is: (AC50 (uM) modified / 1000, Tox21_110001=Tox21_111602, viability, 1 nM T3 present, 24 h) 42.1 µM; (AC50 (uM) modified / 1000, Tox21_110001=Tox21_200561, viability, 1 nM T3 present, 24 h) 27.5 µM.
As for `c1ccc2c(c1)CCc1ccccc1N2` [10,11-Dihydro-5H-dibenz[b,f]azepine], the 50% cytotoxic concentration (CC50) at 24 h (AC50 (uM) modified / 1000) is greater than 90 µM.
Same read-out and setting: with `NC(=O)NS(=O)(=O)c1ccc(N)cc1` [Sulfacarbamide] the figure was greater than 50 µM; with `CN1C(=O)CN2CCc3ccccc3C2c2cc(Cl)ccc21` (stereo not drawn) [Clazolam], greater than 50 µM.
`CCOC(=O)C1OC1(C)c1ccccc1` (stereo not drawn) [Ethyl methylphenylglycidate] yielded a cytotoxic concentration (CC50) at 24 h (AC50 (uM) modified / 1000, Tox21_110001=Tox21_201315, viability, 1 nM T3 present, 24 h) greater than 90 µM.
Consider `CC(=O)OC(C)(C)C1CC=C(C)CC1` (stereo not drawn) [alpha-Terpinyl acetate], for which, for the setting “AC50 (uM) modified / 1000”, the half-maximal cytotoxic concentration (CC50) at 24 h was greater than 90 µM.
Still for that read-out and setting: with `COc1ccc(-c2cc(C(F)F)nn2-c2ccc(S(N)(=O)=O)cc2)cc1F` [Deracoxib] the figure was greater than 50 µM; with `CCOC(=O)c1ccccc1C(=O)OCC` [Diethyl phthalate], greater than 90 µM.
As for `Clc1cc(Cl)c(Cl)cc1Cl` [1,2,4,5-Tetrachlorobenzene], the half-maximal cytotoxic concentration (CC50) at 24 h (AC50 (uM) modified / 1000) is greater than 90 µM.
Still for that read-out and setting: with `CCC(C)S` (stereo not drawn) [2-Butanethiol] the figure was greater than 4 µM; with `COc1cc(-c2nc(NC(=O)c3cc4cc(C)cc(C)c4n3CC(=O)O)sc2CCC2CCCCC2)c(OC)cc1Cl` [SR146131 trifluoroacetate (1:1)], 12.1 µM.
The same measure, in the same setting: with `CCCCCCCC/C=C\CCCCCCCC(=O)OCCOC(=O)CCCCCCC/C=C\CCCCCCCC` [Polyethylene glycol dioleate] the figure was greater than 100 µM; with `Nc1ccc(Br)cc1` [4-Bromoaniline], greater than 90 µM; with `CO[Si](C)(OC)OC` [Trimethoxymethylsilane], greater than 90 µM.
Same read-out and setting: the figure for `CCCCCC(C=O)=Cc1ccccc1` [Pentylcinnamaldehyde] is greater than 90 µM; for `CC=C(C)C(C)=O` [3-Methyl-3-penten-2-one] it is greater than 90 µM; for `CN(C)C(=O)Nc1ccc(Oc2ccc(Cl)cc2)cc1` [Chloroxuron] it is greater than 90 µM.
For `CC(C)[N+](C)(C)CC(O)COc1cccc2ccccc12` (stereo not drawn) [Pranolium chloride], the 50% cytotoxic concentration (CC50) at 24 h (AC50 (uM) modified / 1000) was greater than 50 µM.
For the setting “AC50 (uM) modified / 1000”, `CCCSSCCC` [Dipropyl disulfide] yielded a half-maximal cytotoxic concentration (CC50) at 24 h greater than 90 µM.
On to `CC(C)(CO)[C@@H](O)C(=O)NCCCO` [Dexpanthenol], for which, where the note is “AC50 (uM) modified / 1000”, the half-maximal cytotoxic concentration (CC50) at 24 h was greater than 50 µM.
The same measure, in the same setting: the figure for `C=C(C#N)CCC#N` [2-Methylenepentanedinitrile] is greater than 90 µM; for `N=C(Nc1ccccc1)Nc1ccccc1` [1,3-Diphenylguanidine] it is greater than 50 µM; for `CCCCCCCC/C=C\CCCCCCCCN` [(Z)-9-Octadecenylamine] it is greater than 50 µM.
On the same count and under the same terms, with `O=C(O)CCCl` [3-Chloropropanoic acid] the figure was greater than 90 µM; with `ClCCl` [Dichloromethane], greater than 90 µM.
Same read-out and setting: with `CCc1ccccc1N` [2-Ethylaniline] the figure was greater than 90 µM.
Under “AC50 (uM) modified / 1000”, `CCCCCCCCCCCCCCC1CO1` (stereo not drawn) [1,2-Epoxyhexadecane] returned a half-maximal cytotoxic concentration (CC50) at 24 h greater than 90 µM.
The same measure, in the same setting: the figure for `C=Cc1ccc(C(C)(C)C)cc1` [4-tert-Butylstyrene] is greater than 90 µM.
On the same count and under the same terms, the figure for `C=CCn1c(=O)n(CC=C)c(=O)n(CC=C)c1=O` [Triallyl isocyanurate] is greater than 90 µM.
Still for that read-out and setting: with `CCOc1ccc([N+](=O)[O-])cc1` [1-Ethoxy-4-nitrobenzene] the figure was 39.1 µM; with `Clc1ccnc(Cl)n1` [2,4-Dichloropyrimidine], greater than 90 µM; with `C#C[C@]1(O)CC[C@H]2[C@@H]3CCC4=C(CCC(=O)C4)[C@H]3CC[C@@]21C` [Norethynodrel], greater than 20 µM.
For the setting “AC50 (uM) modified / 1000”, `COc1cc(C(=O)N2CCOCC2)cc(OC)c1OC` [Trimetozine] had a CC50 at 24 h greater than 50 µM.
For the setting “AC50 (uM) modified / 1000”, `C[N+]1(C)[C@@H]2CC[C@H]1CC(OC(=O)c1c[nH]c3ccccc13)C2` (stereo partly drawn) [Tropisetron methyliodide] gave a 50% cytotoxic concentration (CC50) at 24 h greater than 50 µM.
The same measure, in the same setting: with `C[C@]12CCC(=O)C=C1CC[C@@H]1[C@@H]2[C@@H](O)C[C@@]2(C)[C@H]1CC[C@]2(O)C(=O)COP(=O)(O)O` [Hydrocortisone sodium phosphate] the figure was greater than 50 µM.
On to `COc1ccc(OC)c(CC(C)N)c1` (stereo not drawn) [2,5-Dimethoxyamphetamine hydrochloride], for which, where the note is “AC50 (uM) modified / 1000”, the CC50 at 24 h is greater than 100 µM.
Still for that read-out and setting: with `O=C(O)COC(=O)Cc1ccccc1Nc1c(Cl)cccc1Cl` [Aceclofenac] the figure was greater than 20 µM.
Same read-out and setting: the figure for `CCOC(=O)NNc1ccc(N(CC)CC(C)O)nn1` (stereo not drawn) [Cadralazine] is greater than 50 µM; for `CC1CCCNC1` (stereo not drawn) [3-Methylpiperidine] it is greater than 90 µM.
As for `Cc1ccc(Cl)cc1` [4-Chlorotoluene], under “AC50 (uM) modified / 1000”, the 50% cytotoxic concentration (CC50) at 24 h was greater than 100 µM.
Where the note is “AC50 (uM) modified / 1000”, `CO[Si](CCCNc1ccccc1)(OC)OC` [N-[3-(Trimethoxysilyl)propyl]aniline] displayed a CC50 at 24 h greater than 90 µM.
On the same count and under the same terms, with `O=C1c2ccccc2S(=O)(=O)N1CCCCN1CCN(c2ncccn2)CC1` [Ipsapirone] the figure was greater than 50 µM; with `CCCCC(CC)COC(C)=O` (stereo not drawn) [2-Ethylhexyl acetate], greater than 90 µM.
Still for that read-out and setting: with `OC1CCCCCCCCCCC1` [Cyclododecanol] the figure was greater than 90 µM.
Still for that read-out and setting: the figure for `O=C(Nc1ccc(Cl)c(Cl)c1)c1cc(Cl)cc(Cl)c1O` [3,5-Dichlorosalicyl-3,4-dichloroanilide] is 2.97 µM.
For the molecule `COP(=S)(OC)Oc1cc(Cl)c(I)cc1Cl` [Iodenphos], the half-maximal cytotoxic concentration (CC50) at 24 h (AC50 (uM) modified / 1000, Tox21_110001=Tox21_300910, viability, 1 nM T3 present, 24 h) is greater than 90 µM.
On to `O=C(C(=O)c1ccco1)c1ccco1` [alpha-Furil], for which, where the note is “AC50 (uM) modified / 1000”, the CC50 at 24 h is greater than 90 µM.
Still for that read-out and setting: the figure for `CN[C@@H]1C[C@@H](c2ccc(Cl)c(Cl)c2)c2ccccc21` [Indatraline hydrochloride] is 10 µM; for `COc1ccc(C(=O)c2ccc(O)cc2)c(OC)c1` [(2,4-dimethoxyphenyl)(4-hydroxyphenyl)methanone] it is greater than 90 µM; for `O=C(NC(Cc1cc(=O)[nH]c2ccccc12)C(=O)O)c1ccc(Cl)cc1` (stereo not drawn) [Rebamipide] it is greater than 50 µM.

In general, CC50 refers to the concentration that lowers cell viability or growth by half.
